Key:
Type in all cases: physicochemical
[1] = Conductivity of propantheline p-toluenesulfonate (PtTos)/water composites
Text: (§1) Viscosity, conductivity and ΔW values for various propantheline p-toluenesulfonate (PtTos)/water composites.

[2] = Viscosity of propantheline p-toluenesulfonate (PtTos)/water composites; conditions: * instrument limit
Text: as §1

[3] = Walden plot: ΔW / degree of ionicity; conditions: for degree of ionicity (ionized): estimated from the Walden plot (FIG. 7)
Text: Many examples of liquid organic salts are far from fully ionized. Instead, they form ion pairs and aggregates of ions in the liquid state and are better described as Liquid Ion Pairs than “Ionic Liquids”. The distinction between these states can be made on the basis of the behavior of the transport property data when plotted in a Walden plot. The Walden plot is a graph of log equivalent conductivity (corrected for molar volume) vs. log fluidity and thus may be used to estimate the degree of association cations and anions (as correlated motion of cation and anion clusters). […] Liquid Ion Pairs lie beyond this region, i.e., more than one order of magnitude away from the Ideal line. Such liquid salts are less than 10% ionized. Examples of such liquid salts of therapeutic ions include propanthaline tosylate which is about 1% ionized, as estimated from the Walden plot (FIG. 7).
With addition of 25 weight % water, ΔW value decreased. This is true for all of the propantheline p-toluenesulfonate/water systems studied.

## CC(C)[N+](C)(CCOC(=O)C1c2ccccc2Oc2ccccc21)C(C)C [PtTos pure, Propantheline p-Toluenesulfonate]
[1]
  Conductivity (S cm^−1): 5.41 × 10^−7 S cm^−1
[2]
  Viscosity (mPa · s) ± 1%: >2000* mPa · s
[3]; FIG. 7
  distance below the reference line in the Walden plot: 2 log units
[3]; Walden plot, PtTos/water composites
  ΔW (distance form the ideal line): 2.0
[3]
  degree of ionicity (ionized): approximately 1%
[3]; listed as propanthaline tosylate
  degree of ionicity (ionized): about 1%

— patent US9278134B2, “Dual functioning ionic liquids and salts thereof” (priority 2008, dated 2016)
